Results published in US20260325519A1, “METHOD AND PHARMACEUTICAL COMPOSITION FOR USE IN THE TREATMENT OF FOCAL CORTICAL DYSPLASIA” (priority 2023, published 2026).

How the values were obtained:
[1] = system: acute cortical slices from a patient with FCD; assay: Field EPSP (fEPSP) evoked by electrical stimulation in human acute slice from surgically resected FCD; type: cell-based; conditions: 5 μM UBP 310
[2] = system: neocortical acute slices from rats with FCDII; assay: Spontaneous recurrent epileptiform discharges (LFP) in acute neocortical slices from adult FCD rats; type: cell-based, rat (Wistar); conditions: 5 μM gabazine
Procedure: Our study takes advantage of a rat model of FCD developed in our laboratory (Pelorosso et al 2019) by in utero electroporation of a gain of function mutation of mTOR (MTOR c.6644C>T p.S2215F), that has been found in different FCD patients (Baldassari et al 2019). Rats were housed in cages with ad libitum food/water, controlled temperature (21-23 °C) and 12:12 h light-dark cycle (light period from 8 A.M. to 8 P.M.).
Plasmid electroporations were performed with either wild type (WT) or mutant mTOR expression vectors (pCAG-MTOR WT-IRES-GFP or pCAG-MTOR p.S2215F, respectively, 3.0 μg/μL each), or with non-recombinant vector (pCAG-IRES-GFP; 0.5 μg/μL). All constructs were generated by Genscript (Piscataway, NJ) as described before (Pelorosso et al 2019) and were checked by Sanger sequencing.
Timed pregnant Wistar rats (Janvier Labs, Le Genest-Saint-Isle, France) received buprenorphine at 0.03 mg/kg and were anesthetized with sevoflurane (4%) 30 min later. […]
Prior to recordings, rat or human acute slices were transferred in oxygenated normal cerebrospinal fluid (ACSF) at room temperature (>1 hour). […] Spontaneous recurrent epileptiform discharges were recorded as local field potentials as previously described (Peret et al., 2014). […]

[3] = system: acute cortical slices from a patient with FCD; assay: Recurrent epileptiform discharges (LFP) in human acute slice from surgically resected FCD; type: cell-based; conditions: 5 μM UBP 310, 50 μM 4-AP and 5 μM gabazine
Procedure: Cortical slices from patients with drug-resistant epilepsy Acute and cultured slices at 350 μm thickness were prepared from surgical cortical resections from patient diagnosed with drug-resistant epilepsy (AP-HM, Hôpital de La Timone, Marseille, France; CHU Pellegrin, Bordeaux, France) as previously described (Le Duigou et al., 2018). At DIV 1, a subset of cultured slices were transduced with AAV9 with antigrik2 miRNA applied directly to slices (4E+10 per slice).
Prior to recordings, rat or human acute slices were transferred in oxygenated normal cerebrospinal fluid (ACSF) at room temperature (>1 hour). The ACSF contained (in mM, Sigma-Aldrich): 126 NaCl, 3.5 KCl, 1.2NaH2PO4, 26 NaHCO3, 1.3 MgCl2, 2.0 CaCl2 , and 10 glucose (pH 7.4). For electrophysiological recordings, cortical slices were individually transferred to a recording chamber maintained at 30-32 °C and continuously perfused (2-3 ml/min) with oxygenated (95% O2 and 5% CO2) ACSF containing either 5 μM gabazine, or 5 μM gabazine and 50 μM 4-AP in rats and human tissues, respectively. Spontaneous recurrent epileptiform discharges were recorded as local field potentials as previously described (Peret et al., 2014).
All statistical analyses were performed using Prism 6 (Graphpad). Normality of the data distributions was systematically tested using a Shapiro-Wilk test. […]

[4] = acute cortical slices from a patient with FCD
[5] = human acute slice from resected FCD, in words

Cc1cn(C[C@H](N)C(=O)O)c(=O)n(Cc2ccsc2C(=O)O)c1=O [UBP 310]
reduction of the amplitude of evoked field EPSP (fEPSP) [1, 4]: approximately 50%
fEPSP evoked by electrical stimulation [1, 5]: strongly reduced
reduction in the number of epileptiform discharges ([2]; 5 μM UBP 310, bath application, acute neocortical slice from adult FCD rat, n=7 slices from 4 FCD rats, Wilcoxon p=0.0156): around 46%
reduction in the frequency of spontaneous recurrent epileptiform discharges ([2]; 5 μM UBP 310, neocortical acute slices from rats with FCDII): around 46%
reduction of the frequency of spontaneous recurrent epileptiform discharges [3, 4]: around 70%
reduction of the number of epileptiform discharges [3, 5]: strong reduction
